Experimental data reported in publication PMC9944867, “Mechanistic in vitro studies indicate that the clinical drug–drug interactions between protease inhibitors and rosuvastatin are driven by inhibition of intestinal BCRP and hepatic OATP1B1 with minimal contribution from OATP1B3, NTCP and OAT3” (Pharmacology Research & Perspectives, 2023).
Several values for one entry are separate records, joined by “and”; a condition that tells them apart may be missing. Identical values can stand only once. Entries after “also recorded” stand apart in the source; their conditions may differ. Counter-ions that a name gives are not always drawn. Like-named read-outs stand apart in the source and are kept apart here. Marks after values point to notes of the source that are not given here.

What was measured:
OAT3 [1] = tested on: OAT3; set-up: method as in Yoshida et al.[32]; conditions: up to 10 μM; ref Yoshida et al.[32]; cited from earlier work
[2] = Pharmacokinetic parameters of protease inhibitors in clinical interaction studies with rosuvastatin; conditions: calculated, clinical dose of Table 5
human NTCP (SLC10A1) = target: T1, human NTCP (SLC10A1) (Homo sapiens, UniProt Q14973); experiment: NTCP single concentration inhibition screen in HEK293 cells; type: cell-based; conditions: ≥10x [Iin max u]: atazanavir 50 μM, darunavir 15 μM, lopinavir 5 μM, ritonavir 0.3 μM; [3H]-taurocholic acid 1 μM
T1 construct: host or cells: HEK293 TransportoCells
T1 sequence (Q14973 1-349): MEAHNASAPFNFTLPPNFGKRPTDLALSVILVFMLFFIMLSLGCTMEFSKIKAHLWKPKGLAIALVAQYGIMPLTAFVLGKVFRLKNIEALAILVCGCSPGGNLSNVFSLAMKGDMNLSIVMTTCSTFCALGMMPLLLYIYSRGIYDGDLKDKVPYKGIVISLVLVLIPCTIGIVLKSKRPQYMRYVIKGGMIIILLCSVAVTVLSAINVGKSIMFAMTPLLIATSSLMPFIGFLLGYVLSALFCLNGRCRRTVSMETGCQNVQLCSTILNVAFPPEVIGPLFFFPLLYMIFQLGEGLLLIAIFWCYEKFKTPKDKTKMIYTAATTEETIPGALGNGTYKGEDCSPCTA

[3] = read-out: [Cmax] mean steady-state maximum plasma concentration, total drug, cited from earlier work
human OATP1B1 (SLCO1B1) = target: T2, human OATP1B1 (SLCO1B1) (Homo sapiens, UniProt Q9Y6L6); experiment: OATP1B1 inhibition in transporter-expressing HEK293 cells, [3H]-estradiol 17β-D-glucuronide uptake (IC50 determination); conditions: OATP1B1-mediated transport of [3H]-estradiol 17β-D-glucuronide (0.02 μM), HEK293
T2 sequence (Q9Y6L6 1-691): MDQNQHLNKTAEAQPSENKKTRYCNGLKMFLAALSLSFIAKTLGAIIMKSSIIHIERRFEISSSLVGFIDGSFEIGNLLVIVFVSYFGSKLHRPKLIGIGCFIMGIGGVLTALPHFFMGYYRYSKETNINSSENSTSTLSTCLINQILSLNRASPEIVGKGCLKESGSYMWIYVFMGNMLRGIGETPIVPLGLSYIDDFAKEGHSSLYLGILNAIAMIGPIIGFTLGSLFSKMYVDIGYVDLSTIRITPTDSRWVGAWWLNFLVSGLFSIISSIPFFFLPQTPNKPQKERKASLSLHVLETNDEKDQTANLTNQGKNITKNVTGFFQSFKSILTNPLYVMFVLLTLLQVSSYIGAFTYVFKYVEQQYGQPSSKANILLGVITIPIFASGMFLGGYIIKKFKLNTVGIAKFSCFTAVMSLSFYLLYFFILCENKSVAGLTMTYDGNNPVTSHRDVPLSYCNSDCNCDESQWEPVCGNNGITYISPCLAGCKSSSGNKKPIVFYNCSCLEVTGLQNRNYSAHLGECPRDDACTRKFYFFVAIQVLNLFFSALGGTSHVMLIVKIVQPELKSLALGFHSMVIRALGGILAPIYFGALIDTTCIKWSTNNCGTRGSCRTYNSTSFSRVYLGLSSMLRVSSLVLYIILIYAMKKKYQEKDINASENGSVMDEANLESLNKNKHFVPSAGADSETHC
Experimental: (§1) OATP1B1, OATP1B3, NTCP and vector control cell lines were cultured and subsequent transporter assays conducted as described above using the same transporter‐specific probe substrates and incubation times. For OATP1B1, the probe substrate was [^3H]‐estradiol 17β‐D‐glucuronide (0.02 μM) incubated for 2 min, with rifamycin SV (100 μM) as positive control inhibitor. For IC50 determinations, the only difference to the method performed above was that the 15‐min pre‐incubation step contained a range of six concentrations of protease inhibitor drug, and subsequent incubations were conducted with the same six concentration levels of drug rather than with a single concentration.

[4] = human, in vivo
BCRP [5] = target: T3, BCRP (Homo sapiens, UniProt Q9UNQ0); experiment: Caco-2 unidirectional (B-A) BCRP inhibition assay, [3H]-estrone 3-sulfate transport (IC50 determination)
T3 sequence (Q9UNQ0 1-655): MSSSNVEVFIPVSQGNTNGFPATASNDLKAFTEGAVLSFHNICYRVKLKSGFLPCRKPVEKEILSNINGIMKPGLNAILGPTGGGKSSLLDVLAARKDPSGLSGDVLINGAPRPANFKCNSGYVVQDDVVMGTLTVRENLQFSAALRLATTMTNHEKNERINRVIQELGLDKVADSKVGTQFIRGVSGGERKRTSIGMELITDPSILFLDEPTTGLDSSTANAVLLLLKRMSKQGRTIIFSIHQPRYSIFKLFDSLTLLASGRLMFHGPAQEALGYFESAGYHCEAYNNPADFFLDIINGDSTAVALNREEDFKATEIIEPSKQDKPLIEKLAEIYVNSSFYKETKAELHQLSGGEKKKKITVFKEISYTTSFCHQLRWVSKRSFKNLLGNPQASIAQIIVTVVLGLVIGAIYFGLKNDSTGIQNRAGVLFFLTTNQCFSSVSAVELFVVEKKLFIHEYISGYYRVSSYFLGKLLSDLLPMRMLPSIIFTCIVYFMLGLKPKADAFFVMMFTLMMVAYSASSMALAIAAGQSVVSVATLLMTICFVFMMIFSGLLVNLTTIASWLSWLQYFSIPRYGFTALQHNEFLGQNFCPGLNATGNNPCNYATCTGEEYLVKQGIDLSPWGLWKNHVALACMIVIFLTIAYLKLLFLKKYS
Experimental: The methodology used was adapted from the previously validated Caco‐2 unidirectional (basolateral to apical; B‐A) BCRP inhibition assay.[13]
The BCRP inhibition experiments were performed between day 18 to 22 post‐seeding. […] After pre‐incubation, transport buffer was removed and the appropriate donor solutions were added to the basolateral donor compartment. […] Receiver solutions (final DMSO concentration of ≤1 % v/v) in transport buffer containing either the corresponding concentration of test inhibitor or DMSO (vehicle control), and the fluorescent cell monolayer integrity marker lucifer yellow (100 μM), were added to the apical compartments (total volume = 90 μL). Incubations were conducted in triplicate wells per assay condition in a heated incubator at 37°C for 90 min. Following the incubation, the amount (pmol) of [^3H]‐estrone 3‐sulfate appearing in the receiver compartment was determined by sampling (50 μL) into a white walled clear bottomed multiwell plate, to which scintillation fluid (200 μL) was added, and then samples counted on a Microbeta2 liquid scintillation counter (PerkinElmer). The quantified amount (derived from disintegrations per minute; DPM) of [^3H]‐estrone 3‐sulfate was subsequently converted to concentration (pmol/mL) and used to calculate apparent permeability (Papp), as described previously.[18]

BCRP [6] = tested on: BCRP; set-up: method as in PMID 21612343; conditions: ref [17]; cited from earlier work
OAT3 [7] = target: T4, OAT3 (Homo sapiens, UniProt Q8TCC7); experiment: OAT3 single concentration inhibition screen in HEK293 cells; type: cell-based; conditions: human, HEK293 cells expressing OAT3 (with vector control cells), pH 7.4, probe [3H]-estrone 3-sulfate (1 μM); probenecid 300 μM; single concentration screens; read-out: Inhibition of OAT3 by positive control (mean), screen
T4 construct: host or cells: HEK293 TransportoCells
T4 sequence (Q8TCC7 1-542): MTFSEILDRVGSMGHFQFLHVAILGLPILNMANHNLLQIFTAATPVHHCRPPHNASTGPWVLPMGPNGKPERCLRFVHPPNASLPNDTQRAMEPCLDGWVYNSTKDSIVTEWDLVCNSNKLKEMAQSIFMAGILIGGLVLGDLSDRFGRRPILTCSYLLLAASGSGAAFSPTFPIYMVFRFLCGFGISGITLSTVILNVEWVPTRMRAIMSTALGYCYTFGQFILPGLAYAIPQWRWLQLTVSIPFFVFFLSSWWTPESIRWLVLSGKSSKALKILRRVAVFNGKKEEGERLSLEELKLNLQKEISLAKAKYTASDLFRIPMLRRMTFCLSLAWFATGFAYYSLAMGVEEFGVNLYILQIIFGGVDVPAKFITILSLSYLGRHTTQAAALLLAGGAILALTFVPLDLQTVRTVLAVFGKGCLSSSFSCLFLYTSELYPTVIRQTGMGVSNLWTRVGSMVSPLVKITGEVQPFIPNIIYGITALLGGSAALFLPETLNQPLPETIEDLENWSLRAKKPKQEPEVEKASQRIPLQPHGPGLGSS

OATP1B1 = target: T5, OATP1B1 (Homo sapiens, UniProt Q9Y6L6); experiment: OATP1B1 inhibition in transporter-expressing HEK293 cells, [3H]-estradiol 17β-D-glucuronide uptake (IC50 determination); conditions: human, HEK293 cells expressing OATP1B1 (with vector control cells), pH 7.4, probe [3H]-estradiol 17β-D-glucuronide (0.02 μM)
T5 sequence (Q9Y6L6 1-691): T2 sequence (Q9Y6L6 1-691)
Experimental: as §1

human OAT3 (SLC22A8) = target: T6, human OAT3 (SLC22A8) (Homo sapiens, UniProt Q8TCC7); experiment: OAT3 single concentration inhibition screen in HEK293 cells; type: cell-based; conditions: ≥10x unbound [Cmax]: atazanavir 15 μM, darunavir 10 μM, lopinavir 3 μM, ritonavir 0.1 μM; probe 1 μM
T6 construct: host or cells: HEK293 TransportoCells
T6 sequence (Q8TCC7 1-542): T4 sequence (Q8TCC7 1-542)

[8] = cited from earlier work

CC(C)CN(C[C@@H](O)[C@H](Cc1ccccc1)NC(=O)O[C@H]1CO[C@H]2OCC[C@H]21)S(=O)(=O)c1ccc(N)cc1 [darunavir]
Inhibition of OAT3, published (OAT3 [1]): no inhibition
[Iin max u] unbound maximum hepatic inlet concentration [2]: 1.21 µM
Inhibition of NTCP-mediated probe substrate transport, single concentration screen (human NTCP (SLC10A1)): neither darunavir nor ritonavir when tested at a single concentration greater than or equal to ten times their [Iin max u] produced inhibition; also recorded: not an inhibitor
Cmax ([3]; 600 mg, ref Kakuda et al.[36]): 10.6 µM
IC50 (human OATP1B1 (SLCO1B1); IC50, determined values from different occasions (OATP1B1), single occasion): 12.4 µM and 7.89 µM and 8.29 µM
IC50 (human OATP1B1 (SLCO1B1); IC50 mean (OATP1B1), mean (±SD) of three occasions): 9.53 µM
[Ig] maximal enterocyte concentration [4]: 73.0 ^b μM
[Iin max] maximum hepatic inlet concentration [4]: 24.2 ^b μM
IC50 (BCRP [5]): 126 µM and 154 µM and 148 µM
IC50 (BCRP [5]; IC50 mean (BCRP), BCRP-mediated B-A transport of [3H]-estrone 3-sulfate (1 μM), Caco-2, mean (±SD) of occasions, IC50 equates to Ki): 143 µM

C[C@]12CC[C@@H]3c4ccc(OS(=O)(=O)O)cc4CC[C@H]3[C@@H]1CCC2=O [estrone 3‐sulfate, Estrone 3‐sulfate sodium salt]
Km (BCRP [6]): 7.4 µM

CCCN(CCC)S(=O)(=O)c1ccc(C(=O)O)cc1 [probenecid]
inhibition at 3 min, 300 μM (OAT3 [7]): 90.6%

CO[C@H]1/C=C/O[C@@]2(C)Oc3c(C)c(O)c4c(O)c(cc(O)c4c3C2=O)NC(=O)/C(C)=C\C=C\[C@H](C)[C@H](O)[C@@H](C)[C@@H](O)[C@@H](C)[C@H](OC(C)=O)[C@@H]1C [rifamycin SV, rifamycin SV sodium salt]
inhibition at 2 min, 100 μM (OATP1B1): 96.5 ± 3.2%

CC(C)c1nc(CN(C)C(=O)N[C@H](C(=O)N[C@@H](Cc2ccccc2)C[C@H](O)[C@H](Cc2ccccc2)NC(=O)OCc2cncs2)C(C)C)cs1 [ritonavir]
Inhibition of OAT3-mediated [3H]-estrone 3-sulfate transport, single concentration screen (human OAT3 (SLC22A8)): neither atazanavir, darunavir, lopinavir nor ritonavir inhibited OAT3 transport
[Ig] maximal enterocyte concentration ([2]; (FaFg × ka × dose)/Qent): 1.39 ^f μM
[Iin max u] unbound maximum hepatic inlet concentration [2]: 0.0131 µM
[Iin max] maximum hepatic inlet concentration [2]: 1.19 ^f μM
Cmax ([3]; clinical dose of Table 5, ref Elsby et al.[1]): 0.93 µM

CC(C)c1nc(N(C)S(C)(=O)=O)nc(-c2ccc(F)cc2)c1/C=C/[C@@H](O)C[C@@H](O)CC(=O)O [rosuvastatin]
OAT3 ƒe ([8]; active renal secretion, ref [1]): 0.25
OATP1B1 ƒe ([8]; hepatic uptake, ref [1]): 0.38
fraction absorbed ([8]; intestinal BCRP efflux as barrier to absorption, ref [1]): 0.5
BCRP ƒe ([8]; intestinal BCRP efflux, ref [1]): 0.5
NTCP ƒe ([8]; ref [13]): 0.21
OATP1B3 ƒe ([8]; ref [13]): 0.11
overall hepatic elimination ƒe ([8]; ref [13]): 0.7
